Molecular target: T1, Rlig1-AMP (Homo sapiens, UniProt Q8N999)
T1 construct: made in house; host or cells: E. coli BL21 (DE3), pET15b-Rlig1
Assay: FRET-based high-throughput screening of inhibitors for Rlig1-AMP
Type: biochemical
Conditions: for Raw data [w Enyzm]: with enzyme; for Raw data [w/o Enzym]: without enzyme

[1] = sheet HTS hits, MedChemExpress library
[2] = sheet HTS hits, difference of raw data w/o and w enzyme
[3] = HTS hits, MedChemExpress library
[4] = HTS hits, difference of raw data without and with enzyme
[5] = HTS hits, difference of raw data w/o and w enzyme
[6] = HTS hits, normalised value of 1-D Distance

T1 sequence (Q8N999 whole entry): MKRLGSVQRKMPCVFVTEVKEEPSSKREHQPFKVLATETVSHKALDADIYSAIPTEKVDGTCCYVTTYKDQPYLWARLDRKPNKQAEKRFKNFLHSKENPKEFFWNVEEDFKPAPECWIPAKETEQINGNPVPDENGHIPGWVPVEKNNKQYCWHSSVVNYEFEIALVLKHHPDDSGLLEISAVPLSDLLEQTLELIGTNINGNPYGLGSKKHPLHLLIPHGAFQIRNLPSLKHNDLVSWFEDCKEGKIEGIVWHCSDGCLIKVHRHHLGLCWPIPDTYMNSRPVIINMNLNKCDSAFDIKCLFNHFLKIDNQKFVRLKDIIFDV

| Structure (SMILES) | 1-D Distance.npi [1] | 1-D Distance [2] | Raw data [w Enyzm] (sheet HTS hits) | Raw data [w/o Enzym] (sheet HTS hits) | 1-D Distance.npi [3] | 1-D Distance [4] | Raw data [w Enyzm] (HTS hits) | Raw data [w/o Enzym] (HTS hits) | 1-D Distance [5] | 1-D Distance.npi [6] |
| --- | --- | --- | --- | --- | --- | --- | --- | --- | --- | --- |
| C/C1=C2/[N-][C@H]([C@H](CC(N)=O)[C@@]2(C)CCC(=O)NC[C@H](C)OP(=O)([O-])O[C@H]2[C@@H](O)[C@@H](n3cnc4cc(C)c(C)cc43)O[C@@H]2CO)[C@]2(C)N=C(/C(C)=C3N=C(/C=C4N=C1[C@@H](CCC(N)=O)C\4(C)C)[C@@H](CCC(N)=O)[C@]\3(C)CC(N)=O)[C@@H](CCC(N)=O)[C@]2(C)CC(N)=O.[CH3-].[Co+3] [Methylcobalamin] | 89.4559 | 977 | 4140 | 5117 |  |  |  |  |  |  |
| Cl.NC(CO)(CO)CCc1ccc(Sc2cccc(OCc3ccccc3)c2)cc1Cl [Mocravimod (hydrochloride)] |  |  |  |  | 104.362 | 176 | 8286 | 8462 |  |  |
| NC[C@@H]1O[C@H](O[C@H]2[C@@H](O)[C@H](O[C@@H]3[C@@H](O)[C@H](N)C[C@H](N)[C@H]3O[C@H]3O[C@H](CN)[C@@H](O)[C@H](O)[C@H]3N)O[C@@H]2CO)[C@H](N)[C@@H](O)[C@@H]1O.O=S(=O)(O)O [Neomycin (sulfate)] |  |  |  |  |  |  | 7973 | 8455 | 482 | 97.3447 |
| Cl.Cl.Cn1cc(NC(=O)c2cc(NC(=O)CN=C(N)N)cn2C)cc1C(=O)NCCC(=N)N [Netropsin (dihydrochloride)] |  |  |  |  |  |  | 8749 |  | 1774 | 75.4127 |
| CC1CS(=O)(=O)CCN1/N=C/c1ccc([N+](=O)[O-])o1 (stereo not drawn) [Nifurtimox] |  |  |  |  |  |  | 7893 |  | 1863 |  |
| Cl[TeH]1(Cl)(Cl)OCCO1 [Ossirene] |  |  |  |  |  |  | 4805 | 6468 | 1663 |  |
| COS(=O)(=O)[O-].C[n+]1c2ccccc2nc2ccccc21 [Phenazine (methylsulfate)] |  |  |  |  | 78.9166 | 1419 | 2478 | 3897 |  |  |
| NCCNc1ccc(NCCN)c2c1C(=O)c1ccncc1C2=O.O=C(O)/C=C\C(=O)O.O=C(O)/C=C\C(=O)O [Pixantrone (dimaleate)] |  |  |  |  | 84.4919 | 1138 | 4061 | 5199 |  |  |

Other lines, results leading:

| 1-D Distance.npi [1] | 1-D Distance [2] | Raw data [w Enyzm] (sheet HTS hits) | Raw data [w/o Enzym] (sheet HTS hits) | 1-D Distance.npi [3] | 1-D Distance [4] | Raw data [w Enyzm] (HTS hits) | Raw data [w/o Enzym] (HTS hits) | 1-D Distance [5] | 1-D Distance.npi [6] | Structure (SMILES) |
| --- | --- | --- | --- | --- | --- | --- | --- | --- | --- | --- |
|  |  |  |  | 83.8926 | 1051 | 6070 |  |  |  | CN(C)c1ccc2nc3ccc(=[N+](C)C)cc-3sc2c1.O.O.O.[Cl-] [Methylene blue (trihydrate)] |
|  |  |  |  | 74.0964 | 1734 | 5993 | 4259 |  |  | O=C(NCCCCCCCCCC[P+](c1ccccc1)(c1ccccc1)c1ccccc1)c1nn(Cc2ccc(Cl)cc2Cl)c2ccccc12.[Br-] [Mito-LND] |
| 70.0499 | 1918 | 9094 | 11012 |  |  |  |  |  |  | COc1cc(/C=C/C(=O)NCC(O)c2ccc(O)cc2)ccc1O (stereo not drawn) [N-Feruloyloctopamine] |
|  |  |  |  | 74.1423 | 1715 | 9255 | 10970 |  |  | CCCCCOc1ccccc1/C(=C\SC)n1ccnc1.Cl [Neticonazole (hydrochloride)] |
|  |  |  |  |  |  | 8818 | 7318 | 1500 | 76.2265 | CCCCCCCCN=c1ccn(CCCCCCCCCCn2ccc(=NCCCCCCCC)cc2)cc1.Cl.Cl [Octenidine (dihydrochloride)] |
|  |  |  |  |  |  | 8444 | 9664 | 1220 | 82.0351 | NC[C@@H]1O[C@H](O[C@H]2[C@@H](O)[C@H](O[C@@H]3[C@@H](O)[C@H](N)C[C@H](N)[C@H]3O[C@H]3O[C@H](CO)[C@@H](O)[C@H](O)[C@H]3N)O[C@@H]2CO)[C@H](N)[C@@H](O)[C@@H]1O.O=S(=O)(O)O [Paromomycin (sulfate)] |
|  |  |  |  |  | 1702 | 9369 | 11071 |  |  | c1cnc(N2CCN(Cc3ccc4c(c3)OCO4)CC2)nc1 [Piribedil] |
